The source of these data is patent publication US12370143B2, “Compound or salt thereof and lipid particles” (FUJIFILM Corporation, priority 2018, dated 2025).

SMILES strings stand for the structures. Where two headings read alike, the source gives them in different places.

In data set [1] the test system is DMS273 cells constantly expressing Luc. The experiment in a line: Target reporter protein (Luc) knockdown in cell, reporter protein assay. The class given is cell-based. As to conditions: Homo sapiens, DMS-273. The method, then:
The nucleic acid lipid particles prepared by the same method as that in <Preparation of nucleic acid lipid particles> by using the compounds described in Table 3 were evaluated by reporter assay by the following method.
By using pGL4.50 Luc2 (E1310 Promega), DMS273 cells (human small cell lung cancer) (European Collection of Authenticated Cell Cultures) constantly expressing Luc were prepared. RPMI (Gibco) (10% FBS (Gibco), 1% Penicillin-Streptomycin (Gibco), and 200 μg/mL Hygromycin (Wako)) was used as a culture medium. DMS273 cells (2.0×10^3) constantly expressing luciferase (Luc) were seeded in a 96-well plate and cultured in a 5% CO2 incubator for 24 hours, and then the medium was replaced. Then, 10 μL of each of the dispersion liquids of lipid particles diluted with PBS (Gibco) to yield a concentration of 1 to 1,000 nmol/L was added to the 96-well plate, and the final concentration was adjusted to 0.1 to 100 nmol/L (total amount of liquid: 110 μl). Thereafter, the cells were cultured in a 5% CO2 incubator for 24 hours, the medium was then replaced, and the cells were further cultured for 24 hours.
After the viable cell count was determined, the expression amount of Luc was quantified using a Steady Glo assay kit (Promega), and the knockdown efficiency was calculated according to the following equation. Then, the IC50 concentration at which the expression amount of Luc was knocked down to 50% was calculated.

Data set [2] in a line: Particle size of nucleic acid lipid particles (Luc2-siRNA). The class given is physicochemical. Conditions: compound/DSPC/cholesterol/DMG-PEG2000 50/10/38.5/1.5. The method, then: By using the dispersion liquid of lipid particles as it was, the particle size of the lipid particles was measured using a zeta potential/particle size measurement system ELS-Z2 (Otsuka Electronics Co., Ltd.).
(§1) The compounds described in Table 2, L-α-distearoylphosphatidylcholine (trade name: COATSOME® MC-8080; NOF corporation), cholesterol (trade name: Choesterol HP; NIPPON FINE CHEMICAL CO., LTD.), and 1,2-dimyristoyl-rac-glycero-3-(methylpolyoxyethylene 2000) (hereinafter, called DMG-PEG2000) (trade name: SUNBRIGHT® GM-020; NOF corporation) were dissolved in ethanol at a molar ratio of 50/10/38.5/1.5 such that the total lipid concentration became 20 mmol/L, thereby obtaining an oil phase.
(§2) An aqueous nucleic acid solution obtained by dissolving 5 mg of Luc2-siRNA having the sequence described in Biomacromolecules (2013) 14, p. 3905 in 1 mL of sterile water was diluted with 10 mmol/L acetate buffer having a pH 4 such that the nucleic acid concentration became 19.7 μmol/L, thereby obtaining a water phase. Then, the water phase and the oil phase were mixed together by a micromixer (see JP5288254B) using a syringe pump such that the volume ratio of water phase:oil phase became 3:1 (final ratio of siRNA/lipid=339 (mol/mol)), and the mixed solution was diluted 2× with PBS, thereby obtaining a dispersion liquid of nucleic acid lipid particles. The dispersion liquid was dialyzed (Slide-A-Lyzer G2, MWCO: 10 kD, Thermo Fisher Scientific) using a phosphate buffered saline such that ethanol was removed, thereby obtaining nucleic acid lipid particles.
The particle size of the nucleic acid lipid particles was measured by the same method as that in <Preparation of lipid particles>.

The nature of data set [3]: Encapsulation rate of siRNA in nucleic acid lipid particles (Luc2-siRNA). The class given is physicochemical. Conditions: compound/DSPC/cholesterol/DMG-PEG2000 50/10/38.5/1.5. The procedure: as §1, §2
A 3 mol/L aqueous sodium acetate solution (30 μL) and 9 μL of glycogen were added to 60 μL of the lipid particles retaining nucleic acids, and then 1.5 mL of ethanol was added thereto such that only the nucleic acids were precipitated while the lipid was dissolved. Then, the supernatant was removed by centrifugation. After the precipitates were air-dried for 15 minutes or longer, water was added thereto such that the precipitates were redissolved, and the concentration thereof was measured using Nanodrop NF1000 (Thermo Fisher Scientific), thereby quantifying the total nucleic acid concentration.
The nucleic acid concentration was quantified using a Quant-iT RiboGreen RNA Assay Kit (Thermo Fisher Scientific) according to the protocol. First, a 20×TE buffer included in the above kit was diluted with water, thereby obtaining a 1×TE buffer. TE represents Tris/EDTA (ethylenediaminetetraacetic acid). In order to quantify only the nucleic acid in the outer water phase, the dispersion liquid of lipid particles retaining nucleic acids was diluted 10,000× with the 1×TE buffer.
The 10,000× diluted dispersion liquid of lipid particles (100 μL) was put in a 96-well plate, then 100 μL of a RiboGreen reagent (reagent included in the Quanti-iT Ribogreen RNA Assay Kit described above) diluted 2000× with the 1×TE buffer was added to a sample, and fluorescence (excitation wavelength: 485 nm, fluorescence wavelength: 535 nm) was measured using a plate reader Infinit EF200 (TECAN), thereby quantifying the nucleic acid concentration in the outer water phase.
By using the total nucleic acid concentration obtained through the above steps and the quantified nucleic acid concentration in the outer water phase, the nucleic acid encapsulation rate of the nucleic acid lipid particles was calculated according to the following Equation. Nucleic acid encapsulation rate (%)=(total nucleic acid concentration−nucleic acid concentration in outer water phase)/total nucleic acid concentration×100 The results are shown in Table 2.

The mark [4] stands for this setting: Luc2-siRNA lipid particles using the compound, siRNA 0.1 to 100 nmol/L, concentration at which Luc expression is knocked down to 50%, read-out: IC50.

In general, IC50 refers to the concentration that inhibits the measured activity by half.

On to `CCCCC/C=C\C/C=C\CCCCCCCCN(CCCCCCCC/C=C\C/C=C\CCCCC)C(=O)OCCN(C)C` [Comparative Example 3, reference compound], for which the half-inhibitory concentration (IC50) in data set [1] was above 100 nM. The “Particle size (nm)” value in data set [2] worked out at 72.4 nm. Moreover, in data set [3], the “Nucleic acid encapsulation rate” value is recorded as 80%.
In data set [1], `CCCCC/C=C\C/C=C\CCCCCCCCC(CCCCCCCC/C=C\C/C=C\CCCCC)OC(=O)OCCN(C)C` [Comparative Example 4, 2-(Dimethylamino)ethyl((6Z,9Z,28Z,31Z)-heptatriaconta-6,9,28,31-tetraen-19-yl)carbonate, reference compound] gave an IC50 above 100 nM. Also, the “Particle size (nm)” value in data set [2] stood at 62.8 nm. The “Nucleic acid encapsulation rate” value in data set [3] worked out at 77%.
`CCCCC/C=C\C/C=C\CCCCCCCCN(CCCCCCCC/C=C\C/C=C\CCCCC)C(=O)OCCN1CCN(C)CC1` [Comparative Example 5, 2-(4-Methylpiperazin-1-yl)ethyl di((9Z,12Z)-octadeca-9,12-dien-1-yl)carbamate, reference compound]: the IC50 in data set [1] (setting [4]) is above 100 nM. The “Particle size (nm)” value in data set [2] is 75.1 nm. Moreover, the “Nucleic acid encapsulation rate” value in data set [3] is listed as 87%.
`CCCCC/C=C\C/C=C\CCCCCCCCN(CCCCCCCC/C=C\C/C=C\CCCCC)C(=O)CN(C)CCN(C)C` [Comparative Example 6, 2-((2-(dimethylamino)ethyl)(methyl)amino)-N,N-di((9Z,12Z)-octadeca-9,12-dien-1-yl)acetamide, reference compound]: the half-inhibitory concentration (IC50) in data set [1] (setting [4]) is above 100 nM. Moreover, the “Particle size (nm)” value in data set [2] is 81.9 nm. Moreover, the “Nucleic acid encapsulation rate” value in data set [3] stood at 89%.
For `CCCCC/C=C\C/C=C\CCCCCCCCN(CCCCCCCC/C=C\C/C=C\CCCCC)C(=O)CCN(C)CCN(C)C` [Comparative Example 7, 3-((2-(dimethylamino)ethyl)(methyl)amino)-N,N-di((9Z,12Z)-octadeca-9,12-dien-1-yl)propanamide, reference compound], in that order: above 100 nM, 71.9 nm and 87%.
For `CCCCC/C=C\C/C=C\CCCCCCCCN(CCCCCCCC/C=C\C/C=C\CCCCC)C(=O)OC1CCN(CCN(C)C)CC1` [Example 3, 1-(2-(Dimethylamino)ethyl)piperidin-4-yl di((9Z,12Z)-octadeca-9,12-dien-1-yl)carbamate], the IC50 in data set [1] (setting [4]) is 43 nM. In addition, in data set [2], the “Particle size (nm)” value is given as 83.6 nm. Further, the “Nucleic acid encapsulation rate” value in data set [3] was 100%.
Consider `CCCCC/C=C\C/C=C\CCCCCCCCN(CCCCCCCC/C=C\C/C=C\CCCCC)C(=O)OC1CCCN(CCN(C)C)C1` (stereo not shown) [Example 4, 1-(2-(Dimethylamino)ethyl)piperidin-3-yl di((9Z,12Z)-octadeca-9,12-dien-1-yl)carbamate], for which the IC50 in data set [1] (setting [4]) stood at 10 nM. For the same molecule, the “Particle size (nm)” value in data set [2] is reported as 66.1 nm. In addition, the “Nucleic acid encapsulation rate” value in data set [3] was determined as 81%.
`CCCCC/C=C\C/C=C\CCCCCCCCN(CCCCCCCC/C=C\C/C=C\CCCCC)C(=O)OCCN(C)CCN(CC)CC` [Example 7, 2-((2-(Diethylamino)ethyl)(methyl)amino)ethyl di((9Z,12Z)-octadeca-9,12-dien-1-yl)carbamate]: the IC50 in data set [1] (setting [4]) came to 14 nM. Further, the “Particle size (nm)” value in data set [2] is 98.6 nm. Besides, the “Nucleic acid encapsulation rate” value in data set [3] came to 84%.
Take `CCCCC/C=C\C/C=C\CCCCCCCCC(CCCCCCCC/C=C\C/C=C\CCCCC)OC(=O)OCCN(C)CCN(C)C` [Example 20, 2-((2-(dimethylamino)ethyl)(methyl)amino)ethyl((6Z,9Z,28Z,31Z)-heptatriaconta-6,9,28,31-tetraen-19-yl)carbonate]: the IC50 in data set [1] (setting [4]) amounted to 15 nM. Further, the “Particle size (nm)” value in data set [2] is given as 101.6 nm. In addition, in data set [3], the “Nucleic acid encapsulation rate” value is reported as 84%.
On to `CCCCC/C=C\C/C=C\CCCCCCCCC(CCCCCCCC/C=C\C/C=C\CCCCC)OC(=O)OCCN(CCN(C)C)C(C)C` [Example 25, 2-((2-(Dimethylamino)ethyl)(isopropyl)amino)ethyl((6Z,9Z,28Z,31Z)-heptatriaconta-6,9,28,31-tetraen-19-yl)carbonate], for which the IC50 in data set [1] (setting [4]) stood at 16 nM. In data set [2], the “Particle size (nm)” value was found to be 68.5 nm. Further, in data set [3], the “Nucleic acid encapsulation rate” value is listed as 76%.
For the molecule `CCCCC/C=C\C/C=C\CCCCCCCCC(CCCCCCCC/C=C\C/C=C\CCCCC)OC(=O)OCCN(C)CCN` [Example 26], in data set [1] (setting [4]), the IC50 is 30 nM. The “Particle size (nm)” value in data set [2] was determined as 209.8 nm. For the same molecule, in data set [3], the “Nucleic acid encapsulation rate” value came to 97%.
Take `CCCCC/C=C\C/C=C\CCCCCCCCC(CCCCCCCC/C=C\C/C=C\CCCCC)OC(=O)OCCN(C)CCN(C)CCO` [Example 27, (6Z,9Z,28Z,31Z)-heptatriaconta-6,9,28,31-tetraen-19-yl(2-((2-((2-hydroxyethyl)(methyl)amino)ethyl)(methyl)amino)ethyl)carbonate]: in data set [1] (setting [4]), the IC50 is 31 nM. Also, the “Particle size (nm)” value in data set [2] is listed as 75.2 nm. Besides, the “Nucleic acid encapsulation rate” value in data set [3] is given as 75%.
For `CCCCC/C=C\C/C=C\CCCCCCCC(CCCCCCCCCC)OC(=O)OCCN(C)CCN(C)C` (stereo not shown) [Example 29, 2-((2-(Dimethylamino)ethyl)(methyl)amino)ethyl((19Z,22Z)-octacosa-19,22-dien-11-yl)carbonate] the same measures were 19 nM, 70.1 nm and 77%.
For `CCCCC/C=C\C/C=C\CCCCCCCC(CCCCCCCCCC)OC(=O)OCCN(CC)CCN(C)C` (stereo not shown) [Example 33, 2-((2-(Dimethylamino)ethyl)(ethyl)amino)ethyl((19Z,22Z)-octacosa-19,22-dien-11-yl)carbonate], in that order: 12 nM, 67.9 nm and 87%.
Regarding `CCCCC/C=C\C/C=C\CCCCCCCCC(CCCCCCCC/C=C\C/C=C\CCCCC)OC(=O)OCCN(CCCCCCCCCCCC)CCN(C)C` [Example 53], in data set [1] (setting [4]), the IC50 was found to be 9 nM. For the same molecule, the “Particle size (nm)” value in data set [2] worked out at 81 nm. In data set [3], the “Nucleic acid encapsulation rate” value came to 78%.
Take `CCCCCC(CCCCC)C(=O)OCCCCCCC(CCCCCCOC(=O)C(CCCCC)CCCCC)OC(=O)OCCN(CC)CCN(CC)CC` [Example 60, 7-(((2-((2-(Diethylamino)ethyl)(ethyl)amino)ethoxy)carbonyl)oxy)tridecane-1,13-diylbis(2-pentylheptanoate)]: the half-maximal inhibitory concentration (IC50) in data set [1] (setting [4]) came to 1 nM.
As to `CCCCCCC(CCCC)COC(=O)CCCCCCCCC(CCCCCC)OC(=O)OCCN(CCN(CC)CC)C(C)C` (stereo not shown) [Example 84, 2-butyloctyl 3-ethyl-12-hexyl-6-isopropyl-10-oxo-9,11-dioxa-3,6-diazahenicosan-21-oate], the IC50 in data set [1] (setting [4]) stood at 30 nM. In data set [2], the “Particle size (nm)” value is on record as 81 nm. In addition, the “Nucleic acid encapsulation rate” value in data set [3] was 79%.
